Test results from PMC6385310 (Scientific Reports, 2019).
Values joined by “and” are separate entries in the source; they are usually repeats but may differ in a detail not shown here. Equal values may be shown once. Read-outs that look alike come from different tables or passages of the source.

Assays:
in vitro = details: African green monkey
VEEV TC83 = assay: microbe, parasite or virus in culture; type: cell-based; details: Venezuelan equine encephalitis virus, Vero, 16 h, read-out: Titre reduction (%)
[1] = test system: VEEV TC-83 virus expressing a luciferase reporter gene (TC-83-luc); assay: microbe, parasite or virus in culture; type: cell-based, Venezuelan equine encephalitis virus
[2] = test system: nuclear import of VEEV CP-GFP fusion protein; assay: cells; type: cell-based; details: for inhibition of nuclear import of CP-GFP (FRAP, Fn(rec)max): 200 µM; for inhibition at 200 µM: Venezuelan equine encephalitis virus, HeLa, 2 h, read-out: inhibition of nuclear import of CP-GFP (FRAP, Fn(rec)max)
Vero cells [3] = test system: Vero cells
[4] = test system: VEEV CP nuclear accumulation; type: cell-based, Venezuelan equine encephalitis virus
Vero cells [5] = details: cited from earlier work
[6] = test system: VEEV TC-83 virus expressing a luciferase reporter gene (TC-83-luc); details: read-out: anti-VEEV activity EC50; cited from earlier work
[7] = Venezuelan equine encephalitis virus, Vero, read-out: EC50, concentration yielding 50% inhibition of viral replication
[8] = read-out: EC50, concentration yielding 50% inhibition of viral replication
[9] = Venezuelan equine encephalitis virus, Vero, read-out: EC50, µM (cells printed ND)

Row | SMILES | CC50 (in vitro) | inhibition at 10 µM (VEEV TC83) | EC50 [1, 7] | EC50 [1, 8] | SI, selectivity index (CC50/EC50) [1] | other results
1 | COc1ccc(C#C[C@]2(O)CC[C@H]3[C@@H]4CCC5=CC(=O)CCC5=C4[C@@H](c4ccc(N(C)C)cc4)C[C@@]32C)cc1 [Compound 39] | > 100 µM | 47.4 ± 21.4% | < 10 µM | 5.23 µM and 5.2 µM |  | inhibition of nuclear import of CP-GFP (FRAP, Fn(rec)max) [2]: did not significantly alter CP nuclear import dynamics
2 | CC(C)[Si](C#C[C@]1(O)CC[C@H]2[C@@H]3CCC4=CC(=O)CCC4=C3[C@@H](c3ccc(N(C)C)cc3)C[C@@]21C)(C(C)C)C(C)C [Compound 35] | > 100 µM |  | 16.3 ± 4.7 µM | 16.3 µM |  | 
3 | CN(C)c1ccc([C@H]2C[C@@]3(C)[C@@H](CC[C@@]3(O)C#CC(F)(F)F)[C@@H]3CCC4=CC(=O)CCC4=C32)cc1 [Compound 9, Trifluoromethylmifepristone] | > 100 µM |  | 17.8 ± 1.7 µM |  |  | detectable antiviral (anti-VEEV) activity, in words [1]: did not significantly alter the activity of the analogue from 1
4 | CN(C)c1ccc([C@H]2C[C@@]3(C)[C@@H](CC[C@@]3(O)C#Cc3ccccc3)[C@@H]3CCC4=CC(=O)CCC4=C32)cc1 [Compound 38] | > 100 µM | 69.7 ± 15.4% | 8.46 ± 1.7 µM | 8.5 µM | >11.82 and 8.5 ± 1.7 >100 >11.8 | 
5 | CN(C)c1ccc([C@H]2C[C@@]3(C)[C@@H](CC[C@@]3(O)C#CC(F)(F)F)[C@@H]3CC[C@@]4(O)CC5(CCC4=C32)OCCO5)cc1 [Compound 8] | > 100 µM |  | 27.6 µM |  | 27.6 ± 5.1 >100 >3.6 | 
6 | C[C@]12C[C@H](c3ccc(-c4ccccc4)cc3)C3=C4CCC(=O)C=C4CC[C@H]3[C@@H]1CC[C@@]2(O)C#C[Si](C)(C)C [Compound 53] | > 100 µM | 91.1 ± 5.4% | 5 ± 0.7 µM |  | >20.1 | 
7 | CC(C)[Si](C#C[C@]1(O)CC[C@H]2[C@@H]3CC[C@@]4(O)CC5(CCC4=C3[C@@H](c3ccc(N(C)C)cc3)C[C@@]21C)OCCO5)(C(C)C)C(C)C [Compound 32] | > 100 µM | 89.7 ± 4.6% | 22 µM |  | 22.0 ± 6.1 >100 >4.5 | 
8 | CC#C[C@]1(O)CC[C@H]2[C@@H]3CCC4=CC(=O)CCC4=C3[C@@H](c3ccc(NC)cc3)C[C@@]21C [Compound 6, Desmethyl-mifepristone, reference compound] |  |  |  |  |  | detectable antiviral (anti-VEEV) activity, in words [1]: eliminated any detectable antiviral activity
9 | COc1ccc(C2C[C@@]3(C)[C@@H](CC[C@@]3(O)C#C[Si](C)(C)C)[C@@H]3CCC4=CC(=O)CCC4=C23)cc1 (stereo partly drawn) [Compound 51] | > 100 µM |  | 22.5 ± 2.4 µM |  | >4.5 | 
10 | C/C=C\[C@]1(O)CC[C@H]2[C@@H]3CCC4=CC(=O)CCC4=C3[C@@H](c3ccc(N(C)C)cc3)C[C@@]21C [Compound 7, Aglepristone, reference compound] |  |  |  | 25.3 µM |  | CC50 (Vero cells [3]): > 100 µM
11 | CC#C[C@]1(O)CC[C@H]2[C@@H]3CCC4=CC(=O)CCC4=C3[C@@H](c3ccc(N(C)C)cc3)C[C@@]21C [Compound 1, mifepristone, reference compound] | 165 µM | 93.7 ± 19.6% | 19.9 ± 2.7 µM | 19.9 ± 2.7 µM |  | nuclear accumulation of CP in infected cells (Fn/c) [4]: reduced the nuclear accumulation of CP; inhibition at 200 µM [2]: ~30%; CC50 (Vero cells [5]): > 100 µM; EC50 [6]: 20 µM
12 | CC[Si](C#C[C@]1(O)CC[C@H]2[C@@H]3CC[C@@]4(O)CC5(CCC4=C3[C@@H](c3ccc(N(C)C)cc3)C[C@@]21C)OCCO5)(CC)CC [Compound 31] | > 100 µM | 93.9 ± 3.2% | 4.7 µM |  | 4.7 ± 0.5 >100 >21.5 | 
13 | CN(C)c1ccc([C@H]2C[C@@]3(C)[C@@H](CC[C@@]3(O)/C=C\CO)[C@@H]3CCC4=CC(=O)CCC4=C32)cc1 [Compound 13, Lilopristone, reference compound] | > 100 µM |  |  |  |  | detectable antiviral (anti-VEEV) activity, in words [1]: abolished any detectable antiviral activity; EC50 [1, 9]: > 100 µM
14 | CN(C)c1cccc([C@H]2C[C@@]3(C)[C@@H](CC[C@@]3(O)C#C[Si](C)(C)C)[C@@H]3CCC4=CC(=O)CCC4=C32)c1 [Compound 54] | > 100 µM | 94.1 ± 7.1% | 6 ± 1.1 µM |  | >16.7 | 
15 | CC[Si](C#C[C@]1(O)CC[C@H]2[C@@H]3CCC4=CC(=O)CCC4=C3[C@@H](c3ccc(N(C)C)cc3)C[C@@]21C)(CC)CC [Compound 34] | > 100 µM | 95.8 ± 1.9% |  |  |  | inhibition at 200 µM [2]: ~30%
16 | C[C@]12C[C@H](c3ccccc3)C3=C4CCC5(C[C@]4(O)CC[C@H]3[C@@H]1CC[C@@]2(O)C#C[Si](C)(C)C)OCCO5 [Compound 45] | > 100 µM | 95.4 ± 4.1% | 2.6 ± 0.4 µM |  | >38.7 | 
17 | CN(C)c1ccc([C@H]2C[C@@]3(C)[C@@H](CC[C@@]3(O)C#C[Si](C)(C)C)[C@@H]3CC[C@@]4(O)CC5(CCC4=C32)OCCO5)cc1 [Compound 30] | > 100 µM | 88.4 ± 4.8% | 11.1 ± 1.9 µM |  | >9.0 | 
18 | CC(=O)O[C@]1(C(C)=O)CC[C@H]2[C@@H]3CCC4=CC(=O)CCC4=C3[C@@H](c3ccc(N(C)C)cc3)C[C@@]21C [Compound 21, Ulipristal Acetate, reference compound] | > 100 µM |  | 11.5 µM | 11.5 ± 7 µM | >8.67 | 
19 | CN(C)c1ccc([C@H]2C[C@@]3(C)[C@@H](CC[C@@]3(O)C#Cc3ccccc3)[C@@H]3CC[C@@]4(O)CC5(CCC4=C32)OCCO5)cc1 [Compound 36] | > 100 µM | 53.9 ± 18.8% | 7.2 µM |  | 7.2 ± 2.3 >100 >14.0 | 
20 | CN(C)c1ccc([C@H]2C[C@@]3(C)[C@@H](CC[C@@]3(O)C#C[Si](C)(C)C)[C@@H]3CCC4=CC(=O)CCC4=C32)cc1 [Compound 33] | > 100 µM |  | < 10 µM | 8.49 µM and 8.5 µM |  | inhibition at 200 µM [2]: ~30%
21 | COc1ccc(C#C[C@]2(O)CC[C@H]3[C@@H]4CC[C@@]5(O)CC6(CCC5=C4[C@@H](c4ccc(N(C)C)cc4)C[C@@]32C)OCCO6)cc1 [Compound 37] | > 100 µM | 67.1 ± 12.2% |  |  |  | inhibition of nuclear import of CP-GFP (FRAP, Fn(rec)max) [2]: did not significantly alter CP nuclear import dynamics
22 | CN(C)c1ccc([C@H]2C[C@@]3(C)[C@@H](CC[C@@]3(O)C#CCO)[C@@H]3CCC4=CC(=O)CCC4=C32)cc1 [Compound 11] | > 100 µM |  |  |  |  | detectable antiviral (anti-VEEV) activity, in words [1]: abolished any detectable antiviral activity; EC50 [1, 9]: > 100 µM
